Laboratory results taken from publication PMC11464467 (Journal of Advanced Research, 2023).

Key:
striatal DA = assay: HPLC-ECD striatal DA in MPTP mice; assay type: in vivo; conditions: MPTP-treated mice, selegiline 10 mg/kg
[1] = tested on: MPTP-induced mice PD model; assay: Footprint test in MPTP-induced mice PD model; assay type: in vivo; conditions: selegiline 10 mg/kg orally twice daily 14 days; not statistically significant

With `C#CCN(C)[C@H](C)Cc1ccccc1` [selegiline] the “Increase in dopamine levels” value (striatal DA) was 15.35% and the “Locomotion impairments in footprint test (time to cross corridor, stride length)” value [1] was “attenuated these locomotion impairments”.
